Assay results: patent US20150343060A1, “TREATMENT OF CIRCULATING TUMOR CELLS USING AN EXTRACORPOREAL DEVICE” (priority 2014, published 2015)

Tested on: A431 cells
Assay: Probe incubation, irradiation at 24 J/cm^2 and NucleoCounter NC-3000 cell vitality assay after about 24 hours
Assay type: cell-based, human
Conditions: for Cell Number / Cell Vitality: 24 J/cm^2, about 24 hours after irradiation, EGF probe 0.5 μM, panitumumab probe 0.1 μM
Procedure: A431 cells were plated and incubated with either probe for 5 minutes, 10 minutes or 20 minutes prior to washing and irradiation at 24 J/cm^2. […] After irradiation, the cells were cultured at 37° C., 5% CO2 for approximately 24 hours. The NucleoCounter® NC-3000™ cell vitality assay (Chemometec, Allerød, Denmark) was performed.

Q: What does the source list for IRDye® 700DX-panitumumab?
A: Cell Number (5 minutes probe incubation): 675,000 cells/mL; Cell Vitality (5 minutes probe incubation): 44.2%; Cell Number (10 minutes probe incubation): 323,000 cells/mL; Cell Vitality (10 minutes probe incubation): 34%; Cell Number (20 minutes probe incubation): 550,000 cells/mL; Cell Vitality (20 minutes probe incubation): 31%; effect of longer incubation time on cell death (20 minutes vs. 5 minutes incubation, 24 J/cm^2): increased the number of cells undergoing cell death; cell death averaged over the time periods (average over 5, 10 and 20 minutes incubation, 24 J/cm^2): about 60%
